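Grown in 96-well plates, cells were treated for 48 hours with each compound at five concentrations. Insufficient inhibition: endpoint recorded as highest concentration tested. GI50 = concentration required for 50% inhibition of growth.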 Activity calls are given as the source filed them. No stated cut-off is given here; in the data, active = GI50 up to about 1.1 µM and inactive = higher.
What was measured:
Experiment in all cases: NCI-60 cell line screen, 48 h
[1] = tested on: OVCAR-3
[2] = tested on: PC-3
[3] = tested on: U-251
[4] = tested on: NCI-H23
[5] = tested on: SF-268
[6] = tested on: CCRF-CEM
[7] = tested on: NCI-H460
[8] = tested on: SW-620
[9] = tested on: OVCAR-8
[10] = tested on: Hs-578T
[11] = tested on: MDA-MB-231
[12] = tested on: BT-549
[13] = tested on: NCI-H226
[14] = tested on: ACHN
[15] = tested on: KM12
[16] = tested on: K562
[17] = tested on: MOLT-4
[18] = tested on: SK-OV-3
[19] = tested on: SK-MEL-28
[20] = tested on: HOP-62
[21] = tested on: T47D
[22] = tested on: UACC-62
[23] = tested on: A498
[24] = tested on: TK-10
[25] = tested on: LOX IMVI
[26] = tested on: RXF 393
[27] = tested on: NCI-H522
[28] = tested on: UO-31
[29] = tested on: SK-MEL-2
[30] = tested on: HOP-92
[31] = tested on: OVCAR-5
[32] = tested on: SF-295
[33] = tested on: MDA-MB-435
[34] = tested on: CAKI-1
[35] = tested on: IGROV-1
[36] = tested on: SNB-19
[37] = tested on: HCC 2998
[38] = tested on: NCI/ADR-RES
[39] = tested on: EKVX
[40] = tested on: HCT-15
[41] = tested on: SN12C
[42] = tested on: UACC-257
[43] = tested on: MCF7
[44] = tested on: SK-MEL-5
[45] = tested on: HCT-116
[46] = tested on: SR
[47] = tested on: M14
[48] = tested on: Malme-3M
[49] = tested on: RPMI-8226
[50] = tested on: A549
[51] = tested on: MDA-N
[52] = tested on: DU-145
[53] = tested on: SNB-75
[54] = tested on: OVCAR-4
[55] = tested on: HT-29
[56] = tested on: SF-539
[57] = tested on: HL-60
[58] = tested on: 786-0
[59] = tested on: COLO 205
[60] = tested on: SNB-78
[61] = tested on: LXFL 529
[62] = tested on: KM-20L2
[63] = tested on: HOP-18
[64] = tested on: DMS-114
[65] = tested on: M19-MEL

For `Fc1cc(C2=C[C@H](c3ccc(Cl)cc3)NC(=S)N2)c(Cl)cc1Cl`, the GI50 [1] was 33.1 µM (inactive), the GI50 [2] was 28.3 µM (inactive) and the GI50 [3] was 29.6 µM (inactive). For the same molecule, the GI50 [4] was 63.8 µM (inactive), the GI50 [5] was 65.8 µM (inactive) and the GI50 [6] was 28.9 µM (inactive). For the same molecule, the GI50 [7] was 34 µM (inactive), the GI50 [8] was 70.6 µM (inactive) and the GI50 [9] was 39.9 µM (inactive). For the same molecule, the GI50 [10] was > 100 µM (inactive), the GI50 [11] was 23.7 µM (inactive) and the GI50 [12] was > 100 µM (inactive). For the same molecule, the GI50 [13] was 88.7 µM (inactive), the GI50 [14] was 37.8 µM (inactive) and the GI50 [15] was 49.4 µM (inactive). For the same molecule, the GI50 [16] was 5.62 µM (inactive), the GI50 [17] was 15.6 µM (inactive) and the GI50 [18] was > 100 µM (inactive). For the same molecule, the GI50 [19] was > 100 µM (inactive), the GI50 [20] was 48.2 µM (inactive) and the GI50 [21] was 19.2 µM (inactive). For the same molecule, the GI50 [22] was 57 µM (inactive), the GI50 [23] was 27.7 µM (inactive) and the GI50 [24] was 45.1 µM (inactive). For the same molecule, the GI50 [25] was 48.6 µM (inactive), the GI50 [26] was 31.1 µM (inactive) and the GI50 [27] was 34 µM (inactive). For the same molecule, the GI50 [28] was 42.2 µM (inactive), the GI50 [29] was 27.2 µM (inactive) and the GI50 [30] was 27.2 µM (inactive). For the same molecule, the GI50 [31] was > 100 µM (inactive), the GI50 [32] was 28.2 µM (inactive) and the GI50 [33] was 43.9 µM (inactive). For the same molecule, the GI50 [34] was 43 µM (inactive), the GI50 [35] was 41.2 µM (inactive) and the GI50 [36] was 76.7 µM (inactive). For the same molecule, the GI50 [37] was 23.3 µM (inactive), the GI50 [38] was 64.1 µM (inactive) and the GI50 [39] was 31.6 µM (inactive). For the same molecule, the GI50 [40] was 46.8 µM, the GI50 [41] was 29.3 µM (inactive) and the GI50 [42] was 31.6 µM (inactive). For the same molecule, the GI50 [43] was 31.2 µM (inactive), the GI50 [44] was 11.6 µM (inactive) and the GI50 [45] was 35.8 µM (inactive). The GI50 [46] was 40.6 µM (inactive), the GI50 [47] was 54.3 µM (inactive) and the GI50 [48] was > 100 µM (inactive). For the same molecule, the GI50 [49] was 14.9 µM (inactive), the GI50 [50] was 47.3 µM (inactive) and the GI50 [51] was 47.4 µM (inactive). The GI50 [52] was 62.8 µM (inactive), the GI50 [53] was 37.6 µM (inactive) and the GI50 [54] was 35.7 µM (inactive). The GI50 [55] was 36.5 µM (inactive), the GI50 [56] was > 100 µM (inactive) and the GI50 [57] was 20.6 µM (inactive). For the same molecule, the GI50 [58] was 47.9 µM (inactive) and the GI50 [59] was 47 µM (inactive).
`C=CCCC(O)c1cc(C)c(O)c(C)c1` (configuration not stated) was tested, and the GI50 [1] was > 100 µM (inactive), the GI50 [3] was > 100 µM (inactive) and the GI50 [60] was > 100 µM (inactive). For the same molecule, the GI50 [4] was > 100 µM (inactive), the GI50 [5] was > 100 µM (inactive) and the GI50 [6] was > 100 µM (inactive). For the same molecule, the GI50 [7] was > 100 µM (inactive), the GI50 [8] was > 100 µM (inactive) and the GI50 [9] was > 100 µM (inactive). The GI50 [13] was > 100 µM (inactive), the GI50 [14] was > 100 µM (inactive) and the GI50 [15] was > 100 µM (inactive). For the same molecule, the GI50 [16] was > 100 µM (inactive), the GI50 [17] was > 100 µM (inactive) and the GI50 [18] was > 100 µM (inactive). For the same molecule, the GI50 [19] was > 100 µM (inactive), the GI50 [61] was > 100 µM (inactive) and the GI50 [20] was > 100 µM (inactive). The GI50 [22] was > 100 µM (inactive), the GI50 [62] was > 100 µM (inactive) and the GI50 [23] was > 100 µM (inactive). The GI50 [24] was > 100 µM (inactive), the GI50 [25] was > 100 µM (inactive) and the GI50 [26] was 53.3 µM (inactive). The GI50 [27] was > 100 µM (inactive), the GI50 [28] was > 100 µM (inactive) and the GI50 [29] was > 100 µM (inactive). The GI50 [31] was > 100 µM (inactive), the GI50 [63] was > 100 µM (inactive) and the GI50 [32] was > 100 µM (inactive). For the same molecule, the GI50 [35] was > 100 µM (inactive), the GI50 [36] was > 100 µM (inactive) and the GI50 [37] was > 100 µM (inactive). The GI50 [39] was > 100 µM (inactive), the GI50 [40] was > 100 µM and the GI50 [41] was > 100 µM (inactive). The GI50 [42] was > 100 µM (inactive), the GI50 [44] was > 100 µM (inactive) and the GI50 [47] was > 100 µM (inactive). The GI50 [48] was > 100 µM (inactive), the GI50 [49] was > 100 µM (inactive) and the GI50 [64] was > 100 µM (inactive). The GI50 [50] was > 100 µM (inactive), the GI50 [53] was 60.1 µM (inactive) and the GI50 [65] was > 100 µM (inactive). For the same molecule, the GI50 [56] was > 100 µM (inactive), the GI50 [57] was > 100 µM (inactive) and the GI50 [58] was > 100 µM (inactive). The GI50 [59] was > 100 µM (inactive).
With `CCOC(=O)COC1=Nc2cc(OC)c(OC)c3nc(Cl)cc(c23)C1=O` the GI50 [1] was 1.75 µM (inactive), the GI50 [2] was 1.79 µM (inactive) and the GI50 [3] was 2.94 µM (inactive). The GI50 [4] was 2.25 µM (inactive), the GI50 [5] was 2.37 µM (inactive) and the GI50 [6] was 0.299 µM (active). For the same molecule, the GI50 [7] was 18.8 µM (inactive), the GI50 [8] was 2.16 µM (inactive) and the GI50 [9] was 2.43 µM (inactive). For the same molecule, the GI50 [10] was 2.77 µM (inactive), the GI50 [11] was 1.76 µM (inactive) and the GI50 [12] was 1.95 µM (inactive). The GI50 [13] was 11.1 µM (inactive), the GI50 [14] was 1.66 µM (inactive) and the GI50 [15] was 14.8 µM (inactive). For the same molecule, the GI50 [16] was 1.2 µM (inactive), the GI50 [17] was 0.383 µM (active) and the GI50 [18] was 10.1 µM (inactive). The GI50 [19] was 1.99 µM (inactive), the GI50 [20] was 3.07 µM (inactive) and the GI50 [21] was 2.96 µM (inactive). For the same molecule, the GI50 [22] was 1.78 µM (inactive), the GI50 [23] was 11.4 µM (inactive) and the GI50 [24] was 1.96 µM (inactive). The GI50 [25] was 1.98 µM (inactive), the GI50 [26] was 1.75 µM (inactive) and the GI50 [27] was 1.6 µM (inactive). The GI50 [28] was 1.84 µM (inactive), the GI50 [29] was 2 µM (inactive) and the GI50 [30] was 1.7 µM (inactive). The GI50 [31] was 1.94 µM (inactive), the GI50 [32] was 10 µM (inactive) and the GI50 [33] was 1.4 µM (inactive). For the same molecule, the GI50 [34] was 1.96 µM (inactive), the GI50 [35] was 2.37 µM (inactive) and the GI50 [36] was 6.08 µM (inactive). The GI50 [37] was 5.5 µM (inactive), the GI50 [38] was 2.97 µM (inactive) and the GI50 [39] was 0.716 µM (active). The GI50 [40] was 2.34 µM, the GI50 [41] was 1.8 µM (inactive) and the GI50 [42] was 1.75 µM (inactive). The GI50 [43] was 1.7 µM (inactive), the GI50 [44] was 1.88 µM (inactive) and the GI50 [45] was 1.67 µM (inactive). The GI50 [46] was 0.94 µM (active), the GI50 [47] was 1.65 µM (inactive) and the GI50 [48] was 1.36 µM (inactive). For the same molecule, the GI50 [49] was 1.52 µM (inactive), the GI50 [50] was 6.18 µM (inactive) and the GI50 [51] was 1.18 µM (inactive). The GI50 [52] was 1.82 µM (inactive), the GI50 [53] was 2.51 µM (inactive) and the GI50 [54] was 1.67 µM (inactive). The GI50 [55] was 2.29 µM (inactive), the GI50 [56] was 1.92 µM (inactive) and the GI50 [57] was 0.252 µM (active). For the same molecule, the GI50 [58] was 1.62 µM (inactive) and the GI50 [59] was 1.92 µM (inactive).

Reference: ChEMBL document CHEMBL1201862, “PubChem BioAssay data set” (2004)
